{"source": "patent US20260096996A1", "about": "“PHARMACEUTICAL COMPOSITIONS OF TRETINOIN AND METHODS OF PRODUCING SUCH COMPOSITIONS” (Douglas Pharmaceuticals Limited, priority 2022, published 2026)", "origin": "cited, not measured here", "key": {"[1]": {"conditions": "patients treated for APL"}}, "data": [{"smiles": "CC1=C(/C=C/C(C)=C/C=C/C(C)=C/C(=O)O)C(C)(C)CCC1", "note": "[tretinoin, all-trans retinoic acid]", "values": [{"measurement": "absolute bioavailability", "setting": "in vivo", "result": "approximately 50%"}, {"measurement": "administered radiolabel recovered in the urine", "setting": "orally administered, human", "result": "approximately two-thirds"}, {"measurement": "radioactivity recovered in the urine", "setting": "within 72 hours, radiolabeled tretinoin 2.75 mg and 50 mg", "result": "approximately 63%"}, {"measurement": "radioactivity appeared in the feces", "setting": "within 6 days, radiolabeled tretinoin 2.75 mg and 50 mg", "result": 31, "unit": "%"}, {"measurement": "patients experiencing nausea and vomiting", "setting": "[1]", "result": "More than half"}]}]}
